Laboratory results published in patent publication US20020115659A1, “Compounds having heterocyclic groups containing two nitrogen atoms for treating multidrug resistance” (priority 2000, published 2002).

System: NIH-MDR1-G185 cells
Assay: Fluorescent substrate accumulation assay (BODIPY-FL Taxol accumulation)
Format: cell-based
Conditions: MDR modulator 10 micromolar, 15 min preincubation; BODIPY-FL Taxol 500 nM, 40 min at 37° C.; fluorescence in presence/absence of modulator
Procedure: NIH-MDR1-G185 cells (obtained from M. Gottesman, NIH) were harvested and resuspended in RPMI-1640 containing L-glutamine, 10% Cosmic Calf Serum and penicillin-streptomycin. Cell suspension aliquots of 175 microliters (1×10^5 cells) were added to individual wells of a 96 well microtiter plate and preincubated for 15 min at 37° C. with 20 microliter MDR modulator diluted in cell culture media to give a final concentration of 10 micromolar. Control wells received no modulating agent. BODIPY-FL Taxol (Molecular Probes, Eugene, Oreg.) was added to each well in 10 microliter aliquots to give a final concentration of 500 nM and cells were incubated for 40 min at 37° C. Cells were centrifuged at 100× g for 5 min at 4° C. and the cell pellet washed with 200 microliters cold PBS to remove fluorescent medium from wells. Cells were centrifuged once more, media removed, and cells resuspended in 200 microliters cold PBS. Fluorescence accumulation was measured in a fluorescence plate reader fitted with an excitation filter of 485 nm and an emission filter of 538 rn. BODIPY-FL taxol accumulation in the cells was calculated as follows:
Accumulation Index=(fluorescence in NIH-MDR1-G185 cells in the presence of modulator)/(fluorescence in NIH-MDR1-G185 cells in absence of modulator)
Accumulation Index of various compounds prepared above was tested according to the method in Reference Example 3.

Compound	Accumulation Index
O=C(C(CCCc1ccccc1)CCCc1ccccc1)N1CCCCN(C[C@@H](O)COc2cccc3ncccc23)C1 [Example 5]	12
COc1ccc(S(=O)(=O)N2CCC(=O)N(c3ccccc3)C2C(=O)N2CCN(C(c3ccccc3)c3ccccc3)CC2)cc1OC (centres unmarked) [Example 12]	7
